Test results reported in publication PMC3422278 (2012).

How the values were obtained:
[1] = test system: Pu27 (DNA, G4) TGGGGAGGGTGGGGAGGGTGGGGAAGG; assay: PCR stop assay (Taq polymerase); details: 1x PCR buffer, extension 72 °C, indirect
[2] = test system: Pu24I (DNA, G4, inosine at 10 (G-to-I)) TGAGGGTGGGGAGGGTGGGGAAGG; assay: 1H NMR titration (imino proton shifts); details: 150 mM KCl, 25 mM KH2PO4; 1 mM EDTA, pH 7.0, 298 K, 90% H2O/10% D2O; 1.0 mM DNA

| binding ([1]; inhibition only at higher concentration (500 µM)) | binding [2] | binding ([1]; 10 µM oligomers, complementary primer, effect at 125 µM, 250 µM) | Compound |
| --- | --- | --- | --- |
| weak | – | – | COc1cc(NC(=O)Nc2nc3c(s2)C[C@]2(C)CC[C@@H]4[C@H](OC(=O)[C@H]4C)[C@H]2[C@@H]3C)cc(OC)c1 |
| – | yes | weak | C[C@@H]1C(=O)O[C@H]2[C@H]1CC[C@@]1(C)Cc3sc(NC(=O)Nc4ccc(Oc5ccccc5)cc4)nc3[C@@H](C)[C@H]21 |
